The structures appear in SMILES notation.

For this assay, the target named is T1, Purified ERAP1 (37-941)-10His (ERAP1) (Homo sapiens, UniProt Q9NZ08).
T1 construct: Purified ERAP1 (37-941)-10His (ERAP1)
T1 sequence (Q9NZ08 37-941): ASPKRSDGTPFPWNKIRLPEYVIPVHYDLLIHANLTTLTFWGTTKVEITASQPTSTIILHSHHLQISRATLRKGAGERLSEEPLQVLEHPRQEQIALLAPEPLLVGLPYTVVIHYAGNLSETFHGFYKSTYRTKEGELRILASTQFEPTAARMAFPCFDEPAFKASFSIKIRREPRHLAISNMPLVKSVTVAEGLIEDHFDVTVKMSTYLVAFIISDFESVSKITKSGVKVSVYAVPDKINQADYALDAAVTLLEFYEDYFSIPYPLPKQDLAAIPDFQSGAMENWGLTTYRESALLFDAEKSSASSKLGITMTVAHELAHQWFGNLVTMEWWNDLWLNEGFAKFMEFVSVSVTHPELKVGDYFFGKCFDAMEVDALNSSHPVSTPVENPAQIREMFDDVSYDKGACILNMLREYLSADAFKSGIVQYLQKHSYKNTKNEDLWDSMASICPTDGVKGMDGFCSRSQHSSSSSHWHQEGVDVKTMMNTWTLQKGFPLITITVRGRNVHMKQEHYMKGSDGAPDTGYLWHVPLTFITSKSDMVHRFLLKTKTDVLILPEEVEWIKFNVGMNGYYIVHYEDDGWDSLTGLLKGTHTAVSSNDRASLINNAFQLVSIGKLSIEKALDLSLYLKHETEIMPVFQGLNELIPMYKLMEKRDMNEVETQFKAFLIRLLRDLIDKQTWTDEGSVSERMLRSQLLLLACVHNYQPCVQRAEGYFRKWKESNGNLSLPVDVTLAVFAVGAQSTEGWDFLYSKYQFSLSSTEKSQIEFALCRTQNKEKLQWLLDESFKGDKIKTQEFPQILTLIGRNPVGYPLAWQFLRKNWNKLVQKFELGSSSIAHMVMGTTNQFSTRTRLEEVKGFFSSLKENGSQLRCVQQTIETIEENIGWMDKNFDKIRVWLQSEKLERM
Briefly: ERAP1 mediated hydrolysis of an amide substrate (10-mer inhibition assay), biochemical system. As to conditions: 10-mer substrate, 23° C., 1 h, excitation 279 nm / emission 355 nm; read-out: IC50 vs Decapeptide WRVYEKC(Dnp)ALK-acid (where Dnp is Dinitrophenyl maleimide) (10-mer). How it is done:
However, as ERAP1 hydrolyses the N-terminal amide bond and tryptophan is released this internal quenching is lost and the reaction is monitored by the increase in tryptophan fluorescence over the course of the assay. For the purposes of this application this assay is referred to as the “10mer inhibition assay” and compound potencies are calculated and expressed as IC50 as would be familiar to a person skilled in the art.
Biological Assay 1: ERAP1 Mediated Hydrolysis of an Amide Substrate Measured in a Biochemical System
Decapeptide WRVYEKC(Dnp)ALK-acid (where Dnp is Dinitrophenyl maleimide) (10-mer) L-Leucine 7-amido-4-methylcoumarin (L-AMC)
12.5 μL ERAP1 enzyme in 1×AB was combined with 250 nL test compound in DMSO. […] For detection, plates were read at excitation 365 nm and emission 442 nm (L-AMC) or excitation 279 nm and emission 355 nm (10-mer).
Consider `COc1ccc(C(=O)O)cc1S(=O)(=O)Nc1cc(C(F)(F)F)ccc1N1CCC2(CC1)OCc1ccccc12` [Example 33, 3-(N-(2-(spiro[isobenzofuran-1,4′-piperidin]-1′-yl)-5-(trifluoromethyl)phenyl)sulfamoyl)-4-methoxybenzoic acid], for which the IC50 (commonly the concentration that gives 50% inhibition) was less than 0.5 µM.

For the compound `COc1ccc(C(=O)O)cc1S(=O)(=O)Nc1cc(C(F)(F)F)ccc1N1CCN(C(C)=O)CC1` [Example 34, 3-(N-(2-(4-acetylpiperazin-1-yl)-5-(trifluoromethyl)phenyl)sulfamoyl)-4-methoxybenzoic acid], the IC50 was more than 5 µM.

As for `COc1ccc(C(=O)O)cc1S(=O)(=O)Nc1cc(C(F)(F)F)ccc1N1CCC(O)CC1` [Example 35, 3-(N-(2-(4-hydroxypiperidin-1-yl)-5-(trifluoromethyl)phenyl)sulfamoyl)-4-methoxybenzoic acid], the IC50 is less than 0.5 µM.

As for `COc1ccc(C(=O)O)cc1S(=O)(=O)Nc1cc(C(F)(F)F)ccc1N1CCC(O)C1` (centres unmarked) [Example 36, 3-(N-(2-(3-hydroxypyrrolidin-1-yl)-5-(trifluoromethyl)phenyl)sulfamoyl)-4-methoxybenzoic acid], the IC50 is less than 5 µM.

For `COc1ccc(C(=O)O)cc1S(=O)(=O)Nc1cc(C(F)(F)F)ccc1N1CC(O)C1` [Example 37, 3-(N-(2-(3-hydroxyazetidin-1-yl)-5-(trifluoromethyl)phenyl)sulfamoyl)-4-methoxybenzoic acid], the IC50 was less than 5 µM.

In the case of `COc1ccc(C(=O)O)cc1S(=O)(=O)Nc1cc(C(F)(F)F)ccc1N1CCC(C)(C)C1` [Example 39, 3-(N-(2-(3,3-dimethylpyrrolidin-1-yl)-5-(trifluoromethyl)phenyl)sulfamoyl)-4-methoxybenzoic acid], the IC50 was less than 5 µM.

As to `COc1ccc(C(=O)O)cc1S(=O)(=O)Nc1cc(C(F)(F)F)ccc1N1CCN2CCC[C@@H]2C1` [Example 40, (R)-3-(N-(2-(hexahydropyrrolo[1,2-a]pyrazin-2(1H)-yl)-5-(trifluoromethyl)phenyl)sulfamoyl)-4-methoxybenzoic acid], the IC50 is less than 5 µM.

Turning to `COc1ccc(C(=O)O)cc1S(=O)(=O)Nc1cc(C(F)(F)F)ccc1N1CCCCC1=O` [Example 41, 4-methoxy-3-(N-(2-(2-oxopiperidin-1-yl)-5-(trifluoromethyl)phenyl)sulfamoyl)benzoic acid], the concentration for half-maximal inhibition (IC50) is less than 0.5 µM.

Turning to `Cc1ccc(C(=O)O)cc1S(=O)(=O)Nc1cc(C(F)(F)F)ccc1N1CCCOCC1` [Example 42, 3-(N-(2-(1,4-oxazepan-4-yl)-5-(trifluoromethyl)phenyl)sulfamoyl)-4-methylbenzoic acid], the IC50 is more than 5 µM.

With `CCc1ccc(C(=O)O)cc1S(=O)(=O)Nc1cc(C(F)(F)F)ccc1N1CCCOCC1` [Example 43, 3-(N-(2-(1,4-oxazepan-4-yl)-5-(trifluoromethyl)phenyl)sulfamoyl)-4-ethylbenzoic acid], the IC50 is less than 0.5 µM.

For the compound `COc1ccc(C(=O)O)cc1S(=O)(=O)Nc1cc(C(F)(F)F)ccc1N1CCCC1c1cc(C)no1` (centres unmarked) [Example 46, 4-methoxy-3-(N-(2-(2-(3-methylisoxazol-5-yl)pyrrolidin-1-yl)-5-(trifluoromethyl)phenyl)sulfamoyl)benzoic acid], the IC50 is less than 5 µM.

With `COc1ccc(C(=O)O)cc1NS(=O)(=O)c1cc(C(F)(F)F)ccc1N1CCCCC1` [Example 49, 4-methoxy-3-((2-(piperidin-1-yl)-5-(trifluoromethyl)phenyl)sulfonamido)benzoic acid], the half-inhibitory concentration (IC50) was less than 0.5 µM.

Take `COc1ccc(C(=O)O)cc1NS(=O)(=O)c1cc(C(F)(F)F)ccc1N(C)C` [Example 51, 3-((2-(dimethylamino)-5-(trifluoromethyl)phenyl)sulfonamido)-4-methoxybenzoic acid]: the IC50 was less than 0.5 µM.

On to `COc1ccc(C(=O)O)cc1NS(=O)(=O)c1cc(C(F)(F)F)ccc1N1CCOCC1` [Example 52, 4-methoxy-3-((2-morpholino-5-(trifluoromethyl)phenyl)sulfonamido)benzoic acid], for which the IC50 is less than 5 µM.

These data come from patent US12485169B2, “Compounds” (GREY WOLF THERAPEUTICS LIMITED, priority 2018, dated 2025).
